One assay concerns methamphetamine-induced PPI disruption in mice. In words: Methamphetamine-induced disruption of prepulse inhibition of the startle response (PPI), dopamine hypothesis model. Type of assay: in vivo, mouse. Conditions: diazepam, dose not given; methamphetamine 2 mg/kg; FIG. 2B. The source says:
PPI is a neurophysiological phenomenon that the startle response to a stimulus, which could be a sound, an airpuff or a light, is inhibited if a stimulus with the same source but at weaker intensity prior to the stimulus was applied within a short interval. This is a fast neuroadaptative system to protect the living organisms from startle stimulation. It is believed to be a processing protection in a living organism that PPI serves as a sensorimotor gating, a pre-conscious regulator of attention, to reduce the startle response which is harmful to the information professing. […] PPI can be assessed by the motor response in either humans (measuring the eyeblink response by electromyograph) or animals (measuring the startle response).
Mice were i.p. injected by methamphetamine (2 mg/kg) to induce PPI disruption, as a schizophrenia model based on dopamine hypothesis. PPI was measured using the SR-LAB Startle Response System (San Diego Instrument, San Diego, Calif.). […] In the startle-alone trials, the basic auditory startle was measured, and in the prepulse-plus-startle trials, the amount of inhibition of normal startle induced by the prepulse was measured and expressed as a percentage of the basic startle. In the prepulse-alone trials, the normal response to a weak noise was measured as a control.
In the case of `CN1C(=O)CN=C(c2ccccc2)c2cc(Cl)ccc21` [diazepam], the “rescue of methamphetamine-induced PPI disruption” value is listed as “did not rescue”.

Staying with this assay, now noted: methamphetamine 2 mg/kg i.p. alone, without extract; 71 db prepulse; control mice 55.6±3.5%.
Turning to `CN[C@@H](C)Cc1ccccc1` [methamphetamine], the “PPI (inhibition of startle response to 115 db by prepulse)” value was 42.4±4.1%.

A further assay relates to chronic motor tic disorder. Put plainly: Case report: effect on tics in a child with chronic motor tic disorder. The format is in vivo, human. Particulars: single patient, before taking the leaf extract. As for the experimental part:
Withholding all medications for 1 day, they received examination of catecholamine metabolites in the cerebrospinal fluid.
Subsequently, this patient, started to take the extract of the grounded leaves of Clerodendrum inerme, which was prepared by mixing the leaves with water by a blender and collecting the juice after filtration as resulted. […] Honey was added because of the bitter taste. […] The follow-up IQ test had been arranged, but the patient was absent on the examination day.
This patient followed up regularly in NTUH pediatric outpatient clinic for their seizure problem.
Turning to `CCN1CCCC1CNC(=O)c1cc(S(N)(=O)=O)ccc1OC` (stereo not drawn) [sulpiride], the “effect of earlier anti-tic medications on the involuntary movements of the patient” value (shortened to “effect of earlier anti-tic medications”) is recorded as “without success”.
`Cc1nc2n(c(=O)c1CCN1CCC(c3noc4cc(F)ccc34)CC1)CCCC2` [Risperidone]: the “effect of earlier anti-tic medications” value is “in vain”.
On the same count and under the same terms, the same measure for `Clc1cccc(Cl)c1N=C1NCCN1` [clonidine]: “without success”; for `CN1C(=O)CN=C(c2ccccc2)c2cc(Cl)ccc21` [diazepam]: “in vain”; for biperidal: “without success”.
With `O=C(CCCN1CCC(O)(c2ccc(Cl)cc2)CC1)c1ccc(F)cc1` [haloperidol], the “effect of earlier anti-tic medications” value is “in vain”.
As to `CCCN1C[C@H](CSC)C[C@@H]2c3cccc4[nH]cc(c34)C[C@H]21` [pergolide], the “effect of earlier anti-tic medications” value is given as “without success”.

The values are drawn from patent publication US8182844B2, “Use of Clerodendrum sp. for treating tic disorders or psychiatric disorders with sensorimotor gating deficits” (priority 2010, dated 2012).
